Laboratory results reported in patent publication US20250332298A1, “PEPTIDE-COUPLED ALGINATE GELS COMPRISING RADIONUCLIDES” (BLUE WAVE THERAPEUTICS GMBH, priority 2021, published 2025).
“And” between values parts separate entries of the source, which are not always exact repeats. Equal entries are not always repeated.

Assays:
[1] = Binding efficiency of thorium-227 and its decay daughters to preformed alginate microspheres (calcium cross-linked); format: physicochemical; settings: for Bound at 1 h, Bq: 227Th4+ solution in NaCl; for Bound at 1 h, Bq / Bound at 1 h, %: 1 h incubation; for Bound at 2 h, Bq / Bound at 2 h, %: 2 h incubation; for Bound at 1 h, % / Bound at 2 h, %: % of available radioactivity
Method: In this Experiment, binding of a tetravalent radionuclide cation to alginate microspheres was studied.
Calcium crosslinked, inhomogeneous gelled alginate microspheres were made in the same manner as shown in Example 5 above. The microspheres were washed three times using 0.9% NaCl solution, resuspended in 0.8% NaCl and incubated with a solution of ^227Th^4+. Of the available amount of radioactivity, approximately 30% bound to the pre-formed alginate microspheres (Table 3).

[2] = Binding of radium-224 and decay daughters to calcium alginate microparticles and retention over 12 days; settings: for Day 0 particles directly after labelling, radioactivity: 30 mg microparticles, 30 min room temperature, washed, HPGe; for Day 1 radioactivity associated with particles: 24 hours after labelling; for Day 1 radioactivity associated with particles / Day 12 radioactivity associated with particles: room temperature, after washing with water; for Day 12 radioactivity associated with particles: 12 days after labelling; for Day 0 % bound radioactivity relative to available radioactivity: directly after labelling
Method: Calcium alginate was produced via the conversion of sodium alginate powder suspended in isopropyl alcohol by adding an aqueous solution of calcium chloride as exemplified in US 2011/0053886 incorporated herein.
A 30 mg sample of calcium alginate microparticles, having an average size distribution (DV50) of 13 μm, was resuspended first in 200 μl water, then 150 μl radium-224 solution was added followed by an additional 150 μl of water. The sample was vortex mixed then incubated at room temperature for 30 min. An aliquot of 500 μl water was added to the particle suspension. The sample was vortex mixed then centrifuged for 1 min at 6000 rpm. The supernatant was transferred to another Eppendorf tube labelled Wash 1. The particle sample was then resuspended in 1000 μl water, vortexed, then centrifuged. The supernatant was transferred to an Eppendorf tube labelled Wash 2. The wash with 1000 μl water was repeated and the supernatant collected to tube Wash 3. Samples were then analysed for radioactivity using a high purity germanium detector.
The sample was kept at room temperature and analysed again at day 1 (24 hours after labelling) and 12 days after labelling. Radioactivity was determined after first washing the particles with water.
This solution represents the available radioactivity, and radionuclides, added to calcium alginate microparticles. Following incubation and a wash to remove unbound radioactivity, the radioactivity associated with the alginate microparticles was again measured respective to each decay daughter radionuclide. The % bound radioactivity relative to the available radioactivity was calculated.
When the particles were washed on day 1 after labelling, and radioactivity determined (HPGe detector), in addition, the amount of 224-Ra radioactivity theoretically remaining associated with the alginate microparticles was calculated using an available radioactive decay calculator (http://www.radprocalculator.com).

Structure (SMILES)	Bound at 1 h, Bq [1] [Bq]	Bound at 2 h, Bq [1] [Bq]	Bound at 1 h, % [1] [%]	Bound at 2 h, % [1] [%]	Day 0 particles directly after labelling, radioactivity [2]	Day 1 radioactivity associated with particles [2] [Bq]	Day 12 radioactivity associated with particles [2] [Bq]	Day 0 % bound radioactivity relative to available radioactivity [2] [%]	also measured
[223Ra] [Radium-223]	10512	11201	111.5	118.8	–	–	–	–	Bound at 1 h, % ([1]; listed as 223Ra): 100%; Bound at 1 h, % ([1]; listed as radium): 100%
[212Bi] [Formulation 212-Bi, bismuth 212]	–	–	–	–	7640 Bq	7650	910	83.6	–
[212Pb] [Formulation 212-Pb, lead-212]	–	–	–	–	8370 Bq	7840	1040	–	–
[227Th] [Thorium-227]	24679	30647	30.4	37.7	–	–	–	–	Bound at 1 h, % ([1]; listed as 227Th): approximately 30%; Bound at 1 h, % ([1]; listed as thorium-227): approximately 30%
[224Ra] [Formulation 224-Ra, radium-224]	–	–	–	–	8720 Bq and 8740 Bq	7270	913	94.9	Day 1 % radioactivity remaining bound relative to theoretical radioactivity following decay ([2]; Day 1): 100%; Day 12 % radioactivity remaining bound relative to theoretical radioactivity following decay ([2]; Day 12): 100% and 101%
[211Bi] [Bismuth-211]	10067	11154	90.2	99.9	–	–	–	–	Bound at 1 h, % ([1]; listed as 211Bi): 100%; Bound at 1 h, % ([1]; listed as bismuth): 100%
